Marks after values point to notes of the source that are not given here.
Assays:
[1] = single 1250 mg/kg dose, mice; cited from earlier work
[2] = cited from earlier work
S. mansoni [3] = conditions: 1 × 100 mg/kg po; ref Keiser et al. 19; 100 mg/kg; cited from earlier work
[4] = tested on: schistosomula or adult S. mansoni; conditions: concentrations up to 170 μM; cited from earlier work
[5] = 1% DMSO, nephelometry; for Sol2.0: 0.01 M HCl (approximately pH 2.0); for Sol6.5: pH 6.5 phosphate buffer
[6] = assay type: in vitro ADME; conditions: liver microsomes
AR = conditions: cited from earlier work
[7] = tested on: androgen-dependent cell line; conditions: cited from earlier work
in vitro [8] = conditions: human, microsomes
human albumin = human albumin (Homo sapiens, UniProt P02768); assay: in vitro; assay type: in vitro ADME; conditions: plasma, cPPB, estimated from retention on human albumin column
in vitro [9] = conditions: mouse, microsomes
S. mansoni [10] = assay: S. mansoni in vivo study, worm burden reduction in infected NMRI mice; parameters: species or system Schistosoma mansoni in NMRI mice; conditions: Schistosoma mansoni, in Mus musculus, po, 504 h, read-out: S. mansoni WBR
[11] = Mouse exposure study after oral administration; assay type: in vivo, male Swiss outbred mice; conditions: male, Swiss outbred, mouse, plasma, po, 100 mg/kg
physchem = assay type: physicochemical; conditions: pH 7.4

Chain of human albumin (P02768 25-609): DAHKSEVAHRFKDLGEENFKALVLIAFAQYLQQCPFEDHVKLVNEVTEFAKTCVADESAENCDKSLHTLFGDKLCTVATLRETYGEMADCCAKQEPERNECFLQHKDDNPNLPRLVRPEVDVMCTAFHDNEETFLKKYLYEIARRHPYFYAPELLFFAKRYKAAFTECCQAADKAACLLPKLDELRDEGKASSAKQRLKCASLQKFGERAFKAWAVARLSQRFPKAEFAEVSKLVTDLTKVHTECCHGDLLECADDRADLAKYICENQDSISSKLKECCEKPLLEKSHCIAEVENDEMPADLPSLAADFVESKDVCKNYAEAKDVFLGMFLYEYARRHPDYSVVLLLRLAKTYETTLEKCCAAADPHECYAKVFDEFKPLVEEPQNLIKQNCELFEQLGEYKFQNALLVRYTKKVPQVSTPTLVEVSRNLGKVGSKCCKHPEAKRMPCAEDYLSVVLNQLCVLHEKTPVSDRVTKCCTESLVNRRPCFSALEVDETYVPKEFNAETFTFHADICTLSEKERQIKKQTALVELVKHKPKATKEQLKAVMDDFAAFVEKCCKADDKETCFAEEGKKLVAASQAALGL

| SMILES | toxicity after a single dose [1] | pKa [2] | S. mansoni WBR (S. mansoni [3]) | effect on adult S. mansoni in vitro [4] | Sol2.0 [5] | Sol6.5 [5] | metabolic stability (in words) [6] | interaction with the AR in a ligand competition assay (AR) | DHT-induced cell proliferation [7] | microsomal CLint (in vitro [8]) [µL/min/mg] | fraction unbound (human albumin) | microsomal CLint (in vitro [9]) [µL/min/mg] | inhibition in vivo at 100 mg/kg (S. mansoni [10]) [%] | AUC(0-t) [11] [µM·h] | Cmax [11] [µM] | Tmax [11] [h] | chromatographic logD (physchem) |
| --- | --- | --- | --- | --- | --- | --- | --- | --- | --- | --- | --- | --- | --- | --- | --- | --- | --- |
| CC1(C)NC(=O)N(c2ccc(F)c(C(F)(F)F)c2)C1=O [Compd 1] | no apparent toxicity | 12.1 | 95 ^h % | almost no effect | >100/>100 μg/mL | >100/>100 μg/mL | high metabolic stabilities | no measurable interaction | did block | – | – | – | – | – | – | – | – |
| CC1NC(=O)N(c2ccc(F)c(C(F)(F)F)c2)C1=O (centres unmarked) [Compd 23, 3-[4-Fluoro-3-(trifluoromethyl)phenyl]-5-methylimidazolidine-2,4-dione] | – | – | – | – | >100/>100 μg/mL | >100/>100 μg/mL | high metabolic stabilities | – | – | 17 | 0.614 | 34 | 66 | 163 | 26.6 | 1 | 2.4 |

Source: PMC5150661 (Journal of Medicinal Chemistry, 2016)
